Reference: US6906205B2, “Spiro and dispiro 1,2,4-trioxolane antimalarials” (Medicines for Malaria Venture MMV, priority 2002, dated 2005)
Converted amounts (≈) assume the structure as drawn.

Experiments:
[1] = tested on: ANKA strain of P. berghei; experiment: single dose STI in vivo screen in infected mice; set-up: species or system Plasmodium berghei; settings: for Activity (%) 3 mg/kg SSV po / Survival (days) 3 mg/kg SSV po: single 3 mg/kg po in SSV; for Activity (%) po / Survival (days) po: single 10 mg/kg po in 3% ethanol and 7% Tween 80; for Activity (%) po / Activity (%) sc / Activity (%) SSVpo: mice; for Activity (%) sc / Survival (days) sc: single 10 mg/kg sc in 3% ethanol and 7% Tween 80; for Survival (days) po / Survival (days) sc / Survival (days) SSVpo: untreated control 5.6 ± 0.3; for Activity (%) SSVpo: single po dose in standard suspending vehicle (SSV); for Survival (days) SSVpo: single po dose in SSV
Method in brief: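 Groups of 3-5 Moro SPF or NMRI mice infected with the ANKA strain of P. berghei received a single dose of trioxolane on day one post-infection. The compound was given in 3% ethanol and 7% Tween 80 or in SSV (0.5% w/v CMC, 0.5% v/v benzyl alcohol, 0.4% v/v Tween 80, 0.9% w/v sodium chloride in water). Antimalarial activity was scored as percent reduction in parasitemia on day three and as survival time versus untreated controls. Survival to day 30 counted as cure.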

[2] = tested on: P. falciparum K1 strain (Thailand resistant to chloroquine); experiment: semiautomated microdilution assay, [3H]-hypoxanthine incorporation, K1 strain; format: cell-based, Plasmodium falciparum; settings: K1 strain, 72 h incubation
Method in brief: (§1)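 Intraerythrocytic stages from unsynchronised stock cultures are exposed to test compounds in a semiautomated microdilution format, and fifty percent inhibitory concentrations are then fitted by logit regression.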

[3] = tested on: Schistosoma mansoni adult schistosomes (49-day-old); experiment: effect on adult schistosomes (49-day-old) in mice; format: in vivo; settings: single 400 mg/kg per os
Method: Mice were infected with 100 Schistosoma mansoni cercariae […]. Each group was treated per os with OZ compounds at single doses of 200, 400, and 600 mg/kg. […] All groups were killed 4 weeks after treatment and the liver and intestine were removed and separated. The liver and intestine were compressed and alive male and female worms could be seen and counted.

[4] = tested on: P. falciparum NF54 strain (sensitive to standard antimalarials); experiment: semiautomated microdilution assay, [3H]-hypoxanthine incorporation, NF54 strain; format: cell-based, Plasmodium falciparum; settings: NF54 strain, 72 h incubation
Method in brief: as §1

[5] = tested on: Schistosoma mansoni 21-day-old schistosomules; experiment: effect on 21-day-old schistosomules in mice; format: in vivo; settings: single 200 mg/kg per os, female mice
Method: All groups were killed 4 weeks after treatment and the liver and intestine were removed and separated. The liver and intestine were compressed and alive male and female worms could be seen and counted. The effect of the compounds was evaluated by mean total and female worm burden.

[6] = percent reduction in parasitemia day 3 post-infection
[7] = percent reduction in parasitemia day 3 post-infection, 10 mg/kg

| Compound | Activity (%) 3 mg/kg SSV po [1, 6] | Survival (days) 10 mg/kg SSV po ([1]; single 10 mg/kg po in SSV) | IC50 (ng/ml) K1 [2] | % reduction of adult worms growth at day 49 after per os application of 400 mg/kg, TWR (%) [3] | adult worms at day 49, per os 400 mg/kg, DEAD WORM (%) [3] | IC50 (ng/ml) NF54 [4] | % reduction of schistosomule growth at day 21 after per os application of 200 mg/kg, FWR (%) [5] | % reduction of schistosomule growth at day 21 after per os application of 200 mg/kg, TWR (%) [5] | Survival (days) 3 mg/kg SSV po [1] | Activity (%) 10 mg/kg SSV po ([1]; percent reduction in parasitemia day 3 post-infection, single 10 mg/kg po in SSV) | Activity (%) po [1, 6] | Activity (%) sc [1, 6] | Survival (days) po [1] | Survival (days) sc [1] | Activity (%) po [1, 7] | Activity (%) sc [1, 7] | Activity (%) SSVpo [1, 6] | Survival (days) po ([1]; 10 mg/kg) | Survival (days) sc ([1]; 10 mg/kg) | Survival (days) SSVpo [1] |
| --- | --- | --- | --- | --- | --- | --- | --- | --- | --- | --- | --- | --- | --- | --- | --- | --- | --- | --- | --- | --- |
| O=C1CN(C[C@H]2CC[C@]3(CC2)OOC2(O3)C3CC4CC(C3)CC2C4)CCN1 (stereo partly shown) [OZ285] | 72% | 8.7 days | 1.3 ng/mL (≈ 3.45 nM) | 17% | 22% | 1.8 ng/mL (≈ 4.78 nM) | 85% | 86% |  |  |  |  |  |  |  |  |  |  |  |  |
| CC(C)(N)C(=O)NC[C@H]1CC[C@]2(CC1)OOC1(O2)C2CC3CC(C2)CC1C3 (stereo partly shown) [OZ281] | 96% | 8.7 days | 0.50 ng/mL (≈ 1.32 nM) | 12% | 15% | 0.30 ng/mL (≈ 0.793 nM) | 90% | 91% | 10.2 days |  |  |  |  |  |  |  |  |  |  |  |
| O=C(O)CC[C@H]1CC[C@]2(CC1)OO[C@]1(O2)C2CC3CC(C2)CC1C3 [OZ352] | 77% | 8.2 days | 19 ng/mL (≈ 56.5 nM) | 16% | 26% | 20 ng/mL (≈ 59.4 nM) | 91% | 89% | 7.2 days | 99.66% |  |  |  |  |  |  |  |  |  |  |
| O=C1C2C3CC4C5C3C1C5C1(OOC3(O1)C1CC5CC(C1)CC3C5)C42 (stereo not shown) [OZ14] |  |  | 91 ng/mL (≈ 267 nM) | 0/0% | 0/0% | > 100 ng/mL | 0% | 7% |  |  | 23% | 96% | 6.0 days | 7.7 days |  |  |  |  |  |  |
| O=C(O)C1CCC2(CC1)OOC1(O2)C2CC3CC(C2)CC1C3 (stereo not shown) [OZ71] |  |  | 4.5 ng/mL (≈ 14.6 nM) | 0% | 16% | 3.7 ng/mL (≈ 12 nM) | 85% | 91% |  |  |  |  |  |  | 98% | 97% | 98% | 7.3 days | 8.3 days | 6.7 days |
| O=C(c1ccccc1)N1CCC2(CC1)OOC1(O2)C2CC3CC(C2)CC1C3 (stereo not shown) [OZ24] |  |  | 0.35 ng/mL (≈ 0.947 nM) | 21% | 0% | 0.58 ng/mL (≈ 1.57 nM) | 61% | 65% |  |  | 93% | 99.9% | 7.0 days | 8.7 days |  |  | 66% |  |  | 6.8 days |
| C1CCCCCC2(CCCCC1)OOC1(O2)C2CC3CC(C2)CC1C3 (stereo not shown) [OZ20] |  |  | 15 ng/mL (≈ 43 nM) | 0/0% | 0/0% | 20 ng/mL (≈ 57.4 nM) | 0% | 0% |  |  |  |  |  |  |  |  |  |  |  |  |
| NCCOc1ccc([C@H]2CC[C@]3(CC2)OO[C@]2(O3)C3CC4CC(C3)CC2C4)cc1 [OZ323] |  |  | 0.85 ng/mL (≈ 2.13 nM) | 20% | 23% | 1.1 ng/mL (≈ 2.75 nM) | 97% | 95% |  |  |  |  |  |  |  |  |  |  |  |  |
